In ChEMBL document CHEMBL1148155, “Botryllamides E-H, four new tyrosine derivatives from the ascidian Botrylloides tyreum” (J Nat Prod, 2004):

What follows are compounds tested on HCT-116 (assay: Cytotoxicity against human HCT116 cells after 72 hrs by MTS/PMS assay). Conditions: HCT-116, 72 h.
Format: functional, cell-based
`CO/C(=C\c1ccc(O)cc1)C(=O)N/C=C/c1ccc(OC)cc1` [BOTRYLLAMIDE E] gave an IC50 of 30 µM. For `CO/C(=C\c1ccc(O)cc1)C(=O)N/C=C/c1cc(Br)c(O)c(Br)c1` [BOTRYLLAMIDE G], the IC50 was 110 µM. For `CO/C(=C\c1ccc(O)cc1)C(=O)N/C=C/c1cc(Br)c(OC)c(Br)c1` [BOTRYLLAMIDE A], the IC50 was 33 µM. Work on `CO/C(=C\c1ccc(O)cc1)C(=O)N/C=C/c1ccc(OC)c(Br)c1` [BOTRYLLAMIDE C] yielded an IC50 of 28 µM. `CO/C(=C\c1ccc(O)cc1)C(=O)N/C=C/c1ccc(O)cc1` [BOTRYLLAMIDE F] showed an IC50 of 85 µM.
